Like-named read-outs stand apart in the source and are kept apart here. Blank lines part the entries; values can stand above or below the molecule they belong to.
Experiments:
NCI-H1155 = assay: Cell growth inhibition assay (Cell Titer Glo, 3 days); type: cell-based, Human; conditions: NCI-H1155 (KRAS_Q61H), single agent, mean ± std
Method: (§1) Human tumor cell lines from lung cancer, A427, A549, Calu1, Calu3, Calu6, COR-L23, HOP62, MV522, NCI-H1155, NCI-H1299, NCI-H1355, NCI-H1395, NCI-H157, NCI-H1573, NCI-H1666, NCI-1755, NCI-H1792, NCI-2009, NCI-H2030, NCI-H2122, NCI-H2291, NCI-H23, NCI-H2347, NCI-H358, NCI-H441, NCI-H460, NCI-H650, NCI-H727, SW1573 and SW900 were cultured in RPMI 1640 medium containing 10% fetal bovine serum (FBS). Cell line mutation data was collated for the status for the RAS and RAF genes. The data source is the cancer cell line mutation screening data published as part of the Catalog of Somatic Mutations in Cancer database (COSMIC) (Bamford S. et al. Br. J. Cancer. 2004. 91:355-58) and/or in house DNA sequencing.
(§2) Cells were seeded in a 96-well tissue culture plate (NUNC 136102) of RPMI medium containing 10% FBS at 500-2,000 cells per well. Approximately 24 hours after plating, cells were exposed to ten, two-fold or three-fold serial dilutions of either Compound A or B or the combination of the two agents at a 10:1 molar ratio (Compounds A and B respectively). The final dosing concentration range for Compound A was 2-1000 nM and was 0.2-100 nM for Compound B. Cells were incubated in the presence of compounds for 3 days. ATP levels were determined by adding Cell Titer Glo® (Promega) according to the manufacturer's protocol. Briefly, Cell Titer Glo® was added to each plate, incubated for 20 minutes then luminescent signal was read on the SpectraMax L plate reader with a 0.5 sec integration time. All assays were run at least in duplicate.
(§3) Inhibition of cell growth was estimated after treatment with compound or combination of compounds for three days and comparing the signal to cells treated with vehicle (DMSO). Cell growth was calculated relative to vehicle (DMSO) treated control wells. Concentration of compound that inhibits 50% of control cell growth (IC50) was back-interpolated when y=50% of DMSO treated control wells using nonlinear regression with the equation: […]

NCI-H727 = assay: as above; type: cell-based, Human; conditions: NCI-H727 (KRAS_G12V), single agent, mean ± std
Method: as §1, §2, §3

NCI-H650 = assay: as above; type: cell-based, Human; conditions: NCI-H650 (KRAS_Q61L), single agent, mean ± std
Method: as §1, §2, §3

Calu6 = assay: as above; type: cell-based, Human; conditions: Calu6 (KRAS_Q61K), single agent, mean ± std
Method: as §1, §2, §3

NCI-H1666 = assay: as above; type: cell-based, Human; conditions: NCI-H1666 (BRAF_G466V), single agent, mean ± std
Method: as §1, §2, §3

NCI-H358 = assay: as above; type: cell-based, Human; conditions: NCI-H358 (KRAS_G12C), single agent, mean ± std
Method: as §1, §2, §3

NCI-H2122 = assay: as above; type: cell-based, Human; conditions: NCI-H2122 (KRAS_G12C), single agent, mean ± std
Method: as §1, §2, §3

A427 = assay: as above; type: cell-based, Human; conditions: A427 (KRAS_G12D), single agent, mean ± std
Method: as §1, §2, §3

SW1573 = assay: as above; type: cell-based, Human; conditions: SW1573 (KRAS_G12C), single agent, mean ± std
Method: as §1, §2, §3

NCI-H1395 = assay: as above; type: cell-based, Human; conditions: NCI-H1395 (BRAF_G469A), single agent, mean ± std
Method: as §1, §2, §3

[1] = system: A549 lung cancer cell line; assay: Assay 2: cell growth (CellTiterGlo, 72 hours), Ymin; type: cell-based; conditions: percent of T=0 (T=0 = 100%)
Method: FIG. 5 depicts the effect of MEK inhibitor, mTOR inhibitor and their combination on A549 lung cancer cell line growth. […] Cells were treated with MEK inhibitor (two fold dilutions ranging from 7.3 uM-0.014 nM) or with mTOR inhibitor (two fold dilutions ranging from 14.6 uM-0.112 nM) or in combination with both compounds and incubated for 72 hours. Cell growth was measured using the CellTiterGlo (CTG) reagent (Promega) according to the manufacturer's protocol. Data were analyzed using the XLfit (IDBS Ltd.) curve-fitting tool for Microsoft Excel. Growth IC50 (gIC50) and Ymin values were generated using a four-parameter curve fit algorithm (XLFit algorithm #205). Results were expressed as a percent of the t=0 and plotted against the compound concentration. […] Formula below was used to calculate mutually exclusive combination index (CI). Data were reported as log CI, where the logarithm value of CI was calculated. […] Similar analysis was performed for all cell lines and Ymin results are depicted in FIG. 6.

[2] = Homo sapiens, 72 h, read-out: IC50 Single Agent Compound B
[3] = read-out: IC50 Single Agent Compound A

IC50 (NCI-H1155; [2]): > 100 nM
IC50 (NCI-H727; [2]): > 100 nM
IC50 (NCI-H650; [2]): > 100 nM
IC50 (Calu6; Homo sapiens, Calu-6, 72 h, read-out: IC50 Single Agent Compound B): > 100 nM
IC50 (NCI-H1666; [2]): > 100 nM
IC50 (NCI-H358; [2]): > 100 nM
IC50 (NCI-H2122; [2]): 97 ± 37 nM
IC50 (SW1573; [2]): > 100 nM
IC50 (NCI-H1395; [2]): > 100 nM
Molecule: CO[C@H]1C[C@@H]2CC[C@@H](C)[C@@](O)(O2)C(=O)C(=O)N2CCCC[C@H]2C(=O)O[C@H]([C@H](C)C[C@@H]2CC[C@@H](OCCO)[C@H](OC)C2)CC(=O)[C@H](C)/C=C(\C)[C@@H](O)[C@@H](OC)C(=O)[C@H](C)C[C@H](C)/C=C/C=C/C=C/1C [Compound B, everolimus]
IC50 (A427; Homo sapiens, A-427, 72 h, read-out: IC50 Single Agent Compound B): > 100 nM

Molecule: N-{3-[3-cyclopropyl-5-(2-fluoro-4-iodo-phenylamino)6,8-dimethyl;-2,4,7-trioxo-3,4,6,7-tetrahydro-2H-pyrido[4,3-d]pyrimidin-1-yl]phenyl}acetamide [Compound A]
IC50 (NCI-H1155; [3]): > 1000 nM
IC50 (NCI-H727; [3]): 3 ± 1 nM
IC50 (NCI-H650; [3]): 4 ± 2 nM
IC50 (Calu6; [3]): 5 nM
IC50 (NCI-H1666; [3]): 44 ± 46 nM
IC50 (NCI-H358; [3]): 31 ± 10 nM
IC50 (NCI-H2122; [3]): 5 ± 1 nM
IC50 (A427; [3]): 95 ± 68 nM
IC50 (SW1573; [3]): > 1000 nM
IC50 (NCI-H1395; [3]): > 1000 nM
Ymin (lower Y value at any compound concentration) [1]: 257%

From patent US20170065593A1, “Combination” (Novartis AG, priority 2009, published 2017)
